Test results as given in patent US10597388B2, “Pyridazinone herbicides” (FMC CORPORATION, priority 2014, dated 2020).

Columns and labels:
Assay in all cases: Test C greenhouse herbicide test, pre- and postemergence
Format in all cases: in vivo
[1] = tested on: lambsquarters (Chenopodium album)
From the text: (§1) Seeds of plant species selected from blackgrass (Alopecurus myosuroides), ryegrass, Italian (Italian ryegrass, Lolium multiflorum), wheat (winter wheat, Triticum aestivum), galium (catchweed bedstraw, Galium aparine), corn (Zea mays), large crabgrass, large (large crabgrass, Digitaria sanguinalis), foxtail, giant (giant foxtail, Setaria faberii), johnsongrass (Sorghum halepense), lambsquarters (Chenopodium album), morningglory (Ipomoea coccinea), nutsedge, yellow (yellow nutsedge, Cyperus esculentus), pigweed (Amaranthus retroflexus), ragweed (common ragweed, Ambrosia elatior), soybean (Glycine max), barnyardgrass (Echinochloa crus-galli), oilseed rape (Brassica napus), waterhemp (common waterhemp, Amaranthus rudis), and velvetleaf (Abutilon theophrasti) were planted into a blend of loam soil and sand and treated preemergence with test chemicals formulated in a non-phytotoxic solvent mixture which included a surfactant.
(§2) At the same time, plants selected from these crop and weed species and also chickweed (common chickweed, Stellaria media), kochia (Kochia scoparia), and oat, wild (wild oat, Avena fatua), were planted in pots containing Redi-Earth® planting medium (Scotts Company, 14111 Scottslawn Road, Marysville, Ohio 43041) comprising spaghnum peat moss, vermiculite, wetting agent and starter nutrients and treated with postemergence applications of test chemicals formulated in the same manner. Plants ranged in height from 2 to 18 cm (1- to 4-leaf stage) for postemergence treatments. Treated plants and controls were maintained in a greenhouse for 13 to 15 d, after which time all species were compared to controls and visually evaluated. Plant response ratings, summarized in Table C, are based on a scale of 0 to 100 where 0 is no effect and 100 is complete control. A dash (-) response means no test result.

[2] = tested on: wheat (winter wheat, Triticum aestivum)
From the text: as §1, §2

corn (Zea mays) = tested on: corn (Zea mays)
From the text: as §1, §2

[3] = tested on: ragweed (common ragweed, Ambrosia elatior)
From the text: as §1, §2

[4] = tested on: barnyardgrass (Echinochloa crus-galli)
From the text: as §1, §2

[5] = tested on: pigweed (Amaranthus retroflexus)
From the text: as §1, §2

[6] = tested on: foxtail, giant (giant foxtail, Setaria faberii)
From the text: as §1, §2

soybean (Glycine max) = tested on: soybean (Glycine max)
From the text: as §1, §2

[7] = tested on: waterhemp (common waterhemp, Amaranthus rudis)
From the text: as §1, §2

[8] = tested on: galium (catchweed bedstraw, Galium aparine)
From the text: as §1, §2

[9] = tested on: nutsedge, yellow (yellow nutsedge, Cyperus esculentus)
From the text: as §1, §2

[10] = tested on: velvetleaf (Abutilon theophrasti)
From the text: as §1, §2

[11] = tested on: morningglory (Ipomoea coccinea)
From the text: as §1, §2

[12] = tested on: johnsongrass (Sorghum halepense)
From the text: as §1, §2

[13] = tested on: blackgrass (Alopecurus myosuroides)
From the text: as §1, §2

[14] = tested on: ryegrass, Italian (Italian ryegrass, Lolium multiflorum)
From the text: as §1, §2

[15] = Postemergence, 31 g ai/ha, 0 to 100 scale (0 no effect, 100 complete control)
[16] = Postemergence, 125 g ai/ha, scale 0 to 100, 0 is no effect, 100 is complete control
[17] = Postemergence, 250 g ai/ha, scale 0 to 100, 0 no effect, 100 complete control, 13 to 15 d
[18] = Preemergence, 31 g ai/ha, scale 0 to 100, 0 is no effect, 100 is complete control
[19] = Preemergence, 62 g ai/ha, scale 0 to 100, 0 is no effect, 100 is complete control
[20] = Preemergence, 125 g ai/ha, scale 0 to 100, 0 is no effect, 100 is complete control
[21] = Preemergence, 250 g ai/ha, scale 0 to 100 (0 no effect, 100 complete control)
[22] = postemergence, 62 g ai/ha, scale 0 to 100, 0 no effect, 100 complete control

CC(=O)Oc1c(C)nn(C)c(=O)c1-c1c(C)sc2c(C)cc(C)cc12 [Compound 27]
Lambsquarters plant response rating [1, 15]: 85 | Plant response rating, Lambsquarters [1, 16]: 90 | Plant response rating, Lambsquarters [1, 17]: 98 | Plant response rating, Lambsquarters [1, 18]: 70 | Plant response rating, Lambsquarters [1, 19]: 95 | Plant response rating, Lambsquarters [1, 20]: 95 | Lambsquarters plant response rating [1, 21]: 98 | Lambsquarters plant response rating [1, 22]: 85 | Wheat plant response rating [2, 15]: 0 | Plant response rating, Wheat [2, 16]: 5 | Plant response rating, Wheat [2, 17]: 5 | Plant response rating, Wheat [2, 19]: 0 | Plant response rating, Wheat [2, 20]: 0 | Wheat plant response rating [2, 21]: 10 | Wheat plant response rating [2, 22]: 0 | Corn plant response rating (corn (Zea mays); [15]): 0 | Plant response rating, Corn (corn (Zea mays); [16]): 0 | Plant response rating, Corn (corn (Zea mays); [17]): 15 | Plant response rating, Corn (corn (Zea mays); [18]): 0 | Plant response rating, Corn (corn (Zea mays); [19]): 0 | Plant response rating, Corn (corn (Zea mays); [20]): 5 | Corn plant response rating (corn (Zea mays); [21]): 0 | Corn plant response rating (corn (Zea mays); [22]): 5 | Ragweed plant response rating [3, 15]: 70 | Plant response rating, Ragweed [3, 16]: 85 | Plant response rating, Ragweed [3, 17]: 90 | Plant response rating, Ragweed [3, 18]: 80 | Plant response rating, Ragweed [3, 19]: 100 | Plant response rating, Ragweed [3, 20]: 100 | Ragweed plant response rating [3, 21]: 95 | Ragweed plant response rating [3, 22]: 75 | Barnyardgrass plant response rating [4, 15]: 15 | Plant response rating, Barnyardgrass [4, 16]: 25 | Plant response rating, Barnyardgrass [4, 17]: 50 | Plant response rating, Barnyardgrass [4, 18]: 55 | Plant response rating, Barnyardgrass [4, 19]: 80 | Plant response rating, Barnyardgrass [4, 20]: 90 | Barnyardgrass plant response rating [4, 21]: 90 | Barnyardgrass plant response rating [4, 22]: 20 | Pigweed plant response rating [5, 15]: 55 | Plant response rating, Pigweed [5, 16]: 85 | Plant response rating, Pigweed [5, 17]: 90 | Plant response rating, Pigweed [5, 18]: 98 | Plant response rating, Pigweed [5, 19]: 100 | Plant response rating, Pigweed [5, 20]: 98 | Pigweed plant response rating [5, 21]: 100 | Pigweed plant response rating [5, 22]: 80 | Foxtail, Giant plant response rating [6, 15]: 60 | Plant response rating, Foxtail, Giant [6, 16]: 90 | Plant response rating, Foxtail, Giant [6, 17]: 95 | Plant response rating, Foxtail, Giant [6, 18]: 100 | Plant response rating, Foxtail, Giant [6, 19]: 100 | Plant response rating, Foxtail, Giant [6, 20]: 100 | Foxtail, Giant plant response rating [6, 21]: 100 | Foxtail, Giant plant response rating [6, 22]: 75 | Soybean plant response rating (soybean (Glycine max); [15]): 0 | Plant response rating, Soybean (soybean (Glycine max); [16]): 0 | Plant response rating, Soybean (soybean (Glycine max); [17]): 0 | Plant response rating, Soybean (soybean (Glycine max); [19]): 0 | Plant response rating, Soybean (soybean (Glycine max); [20]): 10 | Soybean plant response rating (soybean (Glycine max); [21]): 0 | Soybean plant response rating (soybean (Glycine max); [22]): 0 | Waterhemp plant response rating [7, 15]: 65 | Plant response rating, Waterhemp [7, 16]: 10 | Plant response rating, Waterhemp [7, 17]: 90 | Plant response rating, Waterhemp [7, 19]: 85 | Plant response rating, Waterhemp [7, 20]: 100 | Waterhemp plant response rating [7, 21]: 100 | Waterhemp plant response rating [7, 22]: 60 | Galium plant response rating [8, 15]: 100 | Plant response rating, Galium [8, 16]: 100 | Plant response rating, Galium [8, 17]: 100 | Plant response rating, Galium [8, 18]: 90 | Plant response rating, Galium [8, 19]: 95 | Plant response rating, Galium [8, 20]: 95 | Galium plant response rating [8, 21]: 95 | Galium plant response rating [8, 22]: 100 | Nutsedge, Yellow plant response rating [9, 15]: 85 | Plant response rating, Nutsedge, Yellow [9, 17]: 95 | Plant response rating, Nutsedge, Yellow [9, 18]: 70 | Plant response rating, Nutsedge, Yellow [9, 19]: 90 | Plant response rating, Nutsedge, Yellow [9, 20]: 90 | Nutsedge, Yellow plant response rating [9, 21]: 95 | Nutsedge, Yellow plant response rating [9, 22]: 80 | Velvetleaf plant response rating [10, 15]: 80 | Plant response rating, Velvetleaf [10, 16]: 90 | Plant response rating, Velvetleaf [10, 17]: 95 | Plant response rating, Velvetleaf [10, 19]: 85 | Plant response rating, Velvetleaf [10, 20]: 85 | Velvetleaf plant response rating [10, 21]: 98 | Velvetleaf plant response rating [10, 22]: 85 | Morningglory plant response rating [11, 15]: 100 | Plant response rating, Morningglory [11, 16]: 100 | Plant response rating, Morningglory [11, 17]: 100 | Plant response rating, Morningglory [11, 18]: 85 | Plant response rating, Morningglory [11, 19]: 98 | Plant response rating, Morningglory [11, 20]: 100 | Morningglory plant response rating [11, 21]: 100 | Morningglory plant response rating [11, 22]: 100 | Johnsongrass plant response rating [12, 15]: 10 | Plant response rating, Johnsongrass [12, 17]: 10 | Plant response rating, Johnsongrass [12, 18]: 0 | Plant response rating, Johnsongrass [12, 19]: 5 | Plant response rating, Johnsongrass [12, 20]: 5 | Johnsongrass plant response rating [12, 21]: 25 | Johnsongrass plant response rating [12, 22]: 0 | Blackgrass plant response rating [13, 15]: 50 | Plant response rating, Blackgrass [13, 16]: 85 | Plant response rating, Blackgrass [13, 17]: 90 | Plant response rating, Blackgrass [13, 18]: 85 | Plant response rating, Blackgrass [13, 19]: 90 | Plant response rating, Blackgrass [13, 20]: 90 | Blackgrass plant response rating [13, 21]: 90 | Blackgrass plant response rating [13, 22]: 70 | Ryegrass, Italian plant response rating [14, 15]: 80 | Plant response rating, Ryegrass, Italian [14, 16]: 90 | Plant response rating, Ryegrass, Italian [14, 17]: 90 | Plant response rating, Ryegrass, Italian [14, 18]: 85 | Plant response rating, Ryegrass, Italian [14, 19]: 90 | Plant response rating, Ryegrass, Italian [14, 20]: 90 | Ryegrass, Italian plant response rating [14, 21]: 95 | Ryegrass, Italian plant response rating [14, 22]: 85
